Columns and labels:
VR1 receptor [1] = test: High throughput calcium imaging assay (Fura2, Flex Station) of VR1 antagonists, pH 5.1 stimulus; assay type: cell-based; conditions: 1 uM compound; inhibition of calcium ion influx induced by capsaicin stimulation
VR1 receptor [2] = target: T1, VR1 receptor (Rattus norvegicus, UniProt O35433); test: Whole-cell patch clamp electrophysiology, capsaicin induced current in DRG neurons; assay type: cell-based
T1 construct: Dorsal root ganglion (DRG) neurons were recovered from either neonatal or adult rats; endogenous in cells; host or cells: primary rat dorsal root ganglion neurons
T1 sequence (O35433 whole entry): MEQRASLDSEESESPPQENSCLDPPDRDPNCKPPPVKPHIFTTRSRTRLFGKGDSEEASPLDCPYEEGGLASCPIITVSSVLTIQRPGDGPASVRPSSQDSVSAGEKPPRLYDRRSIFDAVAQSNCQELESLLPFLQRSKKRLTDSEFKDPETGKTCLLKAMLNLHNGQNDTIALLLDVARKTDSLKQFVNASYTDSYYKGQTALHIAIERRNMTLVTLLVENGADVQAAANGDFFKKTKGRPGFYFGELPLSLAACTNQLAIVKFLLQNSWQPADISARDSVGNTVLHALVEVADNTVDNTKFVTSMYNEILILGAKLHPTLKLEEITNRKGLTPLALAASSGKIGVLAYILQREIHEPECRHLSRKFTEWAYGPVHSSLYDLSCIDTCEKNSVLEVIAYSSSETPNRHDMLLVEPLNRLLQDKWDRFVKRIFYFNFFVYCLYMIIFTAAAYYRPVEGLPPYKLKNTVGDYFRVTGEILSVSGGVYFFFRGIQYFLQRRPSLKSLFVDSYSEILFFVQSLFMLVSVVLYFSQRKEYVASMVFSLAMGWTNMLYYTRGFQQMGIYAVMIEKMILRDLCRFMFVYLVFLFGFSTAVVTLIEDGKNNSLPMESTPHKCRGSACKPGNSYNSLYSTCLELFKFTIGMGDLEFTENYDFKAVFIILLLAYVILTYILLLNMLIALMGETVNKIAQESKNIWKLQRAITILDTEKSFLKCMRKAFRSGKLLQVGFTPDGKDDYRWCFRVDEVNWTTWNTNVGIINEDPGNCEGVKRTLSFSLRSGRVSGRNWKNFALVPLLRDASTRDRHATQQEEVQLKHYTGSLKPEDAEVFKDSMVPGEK
Experimental: Dorsal root ganglion (DRG) neurons were recovered from either neonatal or adult rats and plated onto poly-D-lysine coated glass coverslips. The plated neurons were transferred into a chamber to allow drug solutions to be added to the cells using a computer-controlled solenoid-valve based perfusion system. The cells were imaged using standard DIC optics. Cells were patched using finely-pulled glass electrodes. Voltage-clamp electrophysiology experiments were carried out using an Axon Instruments Multiclamp amplified controlled by pCLAMP8 software.
The cells were placed into a whole-cell voltage clamp and help at a voltage of −80 mV while monitoring the membrane current in gap-free recording mode. 500 nM capsaicin was added for 30 seconds as a control. Test compounds at various concentrations at ranging from (10-1000 nM) were added to the cells for 1 minute prior to a 30 second capsaicin application. Differences between control experiments and drug positive capsaicin experiments were used to determine the efficacy of each test compound. All compounds that inhibited capsaicin induced current greater than 50% were considered positives.

dose response of inhibiting a capsaicin induced calcium ion influx (FIG. 4) (VR1 receptor [2]; 20 nM, 40 nM, 100 nM and 200 nM)	inhibition at 0.2 µM (VR1 receptor [2]; DRG neuron, 200 nM compound, treatment time 25 seconds, 500 nM capsaicin, rat DRG neurons, -80 mV)	SMILES	% Inhibition @ 1 uM (VR1 receptor [1])
increasing effectiveness	100%	CC(C)(C)c1ccc(NC(=O)c2ccc(-c3ncccc3Cl)cc2)cc1 [Compound 24]	+ + + + (compound exhibited 75% or greater inhibition of calcium ion influx induced by capsaicin stimulation)
		O=C(Nc1ccc2ccccc2c1)c1ccc(-c2ncccc2Cl)c(F)c1 [Compound 160]	+ + + + (compound exhibited 75% or greater inhibition of calcium ion influx induced by capsaicin stimulation)
		O=C(Nc1cccc(Cl)c1Cl)c1ccc(-c2ncccc2Cl)c(F)c1 [Compound 122]	+ + + + (compound exhibited 75% or greater inhibition of calcium ion influx induced by capsaicin stimulation)
		O=C(Nc1ccc2c(c1)Cc1ccccc1-2)c1ccc(-c2ncccc2Cl)cc1 [Compound 36]	+ + (compound exhibited 25-50% inhibition of calcium ion influx induced by capsaicin stimulation)
		Cc1cc(NC(=O)c2ccc(-c3ncccc3Cl)cc2)nc(C)n1 [Compound 35]	+ (compound exhibited 0-25% inhibition of calcium ion influx induced by capsaicin stimulation)
		Cc1cccnc1NC(=O)c1ccc(-c2ncccc2Cl)cc1 [Compound 48]	+ + (compound exhibited 25-50% inhibition of calcium ion influx induced by capsaicin stimulation)

Source: patent US20050197364A1, “Amide compounds as ion channel ligands and uses thereof” (priority 2003, published 2005)
